Experimental data from patent US20230121086A1, “RORgT INHIBITOR, PREPARATION METHOD THEREOF AND USE THEREOF” (SUNSHINE LAKE PHARMA CO., LTD., priority 2020, published 2023).

The molecules below were run against T1, RORγt (Homo sapiens, UniProt P51449) (assay: Fluorescence resonance energy transfer (FRET) test, inhibitory activity of RORγt). Conditions: not given.
T1 construct: […]
T1 sequence (P51449 269-508 limits assumed): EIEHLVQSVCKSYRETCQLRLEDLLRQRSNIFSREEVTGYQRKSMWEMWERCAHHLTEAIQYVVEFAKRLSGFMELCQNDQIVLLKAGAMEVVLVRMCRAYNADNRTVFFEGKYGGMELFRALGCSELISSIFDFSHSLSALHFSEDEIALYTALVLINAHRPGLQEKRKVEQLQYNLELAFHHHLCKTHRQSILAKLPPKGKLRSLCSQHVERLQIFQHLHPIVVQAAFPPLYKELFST
Format: biochemical

Molecule	IC50 [nM]
[2H]C([2H])(NC(=O)c1ccc(N2C[C@@H](Oc3ccc(OC(F)(F)F)cn3)C[C@H]2COC(F)F)cc1)c1ccc(S(=O)(=O)CC)cc1 [Example 169, N-(Dideuterium(4-(ethylsulfonyl)phenyl)methyl)-4-((2S,4S)-2-((difluoromethoxy)methyl)-4-((5-(trifluoromethoxy)pyridin-2-yl)oxy)pyrrolidin-1-yl) benzamide]	6

Same assay, conditions: FRET, B-RORγt LBD / Biotin-SRC1; read-out: IC50

Molecule	IC50 [nM]
CCS(=O)(=O)c1ccc([C@H](COC(=O)NC)NC(=O)c2ccc(N3C[C@@H](Oc4ccc(OC(F)(F)F)cn4)C[C@H]3COC(F)F)cc2)cc1 [Example 155, (R)-2-(4-((2S,4S)-2-((difluoromethoxy)methyl)-4-((5-(trifluoromethoxy)pyridin-2-yl)oxy)pyrrolidin-1-yl)benzoylamino)-2-(4-(ethylsulfonyl)phenyl)ethyl methylcarbamate]	11
CCS(=O)(=O)c1ccc([C@H](COC(N)=O)NC(=O)c2ccc(N3C[C@@H](Oc4ccc(OC(F)(F)F)cn4)C[C@H]3COC(F)F)cc2)cc1 [Example 156, (R)-2-(4-((2S,4S)-2-((difluoromethoxy)methyl)-4-((5-(trifluoromethoxy)pyridin-2-yl)oxy)pyrrolidin-1-yl)benzoylamino)-2-(4-(ethylsulfonyl)phenyl)ethyl carbamate]	3.1
CCS(=O)(=O)c1ccc([C@H](CC#N)NC(=O)c2ccc(N3C[C@@H](Oc4ccc(-n5nccn5)cc4)C[C@H]3COC(F)F)cc2)cc1 [Example 157, 4-((2S,4S)-4-(4-(2H-1,2,3-triazol-2-yl)phenoxy)-2-((difluoromethoxy)methyl)pyrrolidin-1-yl)-N—((S)-2-cyano-1-(4-(ethylsulfonyl)phenyl)ethyl)benzamide]	6.9
CCS(=O)(=O)c1ccc([C@H](CC#N)NC(=O)c2ccc(N3C[C@@H](Oc4ccc(-n5cccn5)cn4)C[C@H]3COC(F)F)cc2)cc1 [Example 158]	7.4
CCS(=O)(=O)c1ccc([C@H](CC#N)NC(=O)c2ccc(N3C[C@@H](Oc4ccc(-n5cc(C)cn5)cc4)C[C@H]3COC(F)F)cc2)cc1 [Example 159, N—((S)-2-cyano-1-(4-(ethylsulfonyl)phenyl)ethyl)-4-((2S,4S)-2-((difluoromethoxy)methyl)-4-(4-(4-methyl-1H-pyrazol-1-yl)phenoxy)pyrrolidin-1-yl) benzamide]	10.2
CCS(=O)(=O)c1ccc([C@H](CC#N)NC(=O)c2ccc(N3C[C@@H](Oc4ccc(Cl)cn4)C[C@H]3COC(F)F)cc2)cc1 [Example 160, 4-((2S,4S)-4-((5-chloropyridin-2-yl)oxy)-2-((difluoromethoxy)methyl)pyrrolidin-1-yl)-N—((S)-2-cyano-1-(4-(ethylsulfonyl)phenyl)ethyl)benzamide]	5.6
CCS(=O)(=O)c1ccc([C@H](CC#N)NC(=O)c2ccc(N3C[C@@H](Oc4ccc(-n5ccc(F)n5)cc4)C[C@H]3COC(F)F)cc2)cc1 [Example 162, N—((S)-2-cyano-1-(4-(ethylsulfonyl)phenyl)ethyl)-4-((2S,4S)-2-((difluoromethoxy)methyl)-4-(4-(3-fluoro-1H-pyrazol-1-yl)phenoxy)pyrrolidin-1-yl)benzamide]	9.9
CCS(=O)(=O)c1ccc([C@H](CC#N)NC(=O)c2ccc(N3C[C@@H](Oc4ccc(-n5ccc(C)n5)cc4)C[C@H]3COC(F)F)cc2)cc1 [Example 163, N—((S)-2-cyano-1-(4-(ethylsulfonyl)phenyl)ethyl)-4-((2S,4S)-2-((difluoromethoxy)methyl)-4-(4-(3-methyl-1H-pyrazol-1-yl)phenoxy)pyrrolidin-1-yl) benzamide]	5.1
CCS(=O)(=O)c1ccc([C@H](COC(N)=O)NC(=O)c2cnc(N3C[C@@H](Oc4ccc(Cl)cn4)C[C@H]3COC(F)F)c(F)c2)cc1 [Example 164, (R)-2-(6-((2S,4S)-4-((5-chloropyridin-2-yl)oxy)-2-((difluoromethoxy)methyl)pyrrolidin-1-yl)-5-fluoronicotinamido)-2-(4-(ethylsulfonyl)phenyl)ethyl carbamate]	3.1
CCS(=O)(=O)c1ccc([C@H](COC(N)=O)NC(=O)c2ccc(N3C[C@@H](Oc4ccc(-n5cccn5)cn4)C[C@H]3COC(F)F)nc2)cc1 [Example 168, (R)-2-(6-((2S,4S)-4-((5-(1H-pyrazol-1-yl)pyridine-2-yl)oxy)-2-((difluoromethoxy)methyl)pyrrolidin-1-yl)nicotinylamino)-2-(4-(ethylsulfonyl)phenyl)ethyl carbamate]	8
CCS(=O)(=O)c1ccc([C@H](COC(N)=O)NC(=O)c2ccc(N3C[C@@H](Oc4ccc(-n5nccn5)cn4)C[C@H]3COC(F)F)cc2)cc1 [Example 170, (R)-2-(4-((2S,4S)-4-((5-(2H-1,2,3-triazol-2-yl)pyridine-2-yl)oxy)-2-((difluoromethoxy)methyl)pyrrolidin-1-yl)benzoylamino)-2-(4-(ethylsulfonyl)phenyl)ethyl carbamate]	9
CCS(=O)(=O)c1ccc([C@H](CC(=O)O)NC(=O)c2ccc(N3C[C@@H](Oc4ccc(-n5cccn5)cn4)C[C@H]3COC(F)F)cc2)cc1 [Example 172, (S)-3-(4-((2S,4S)-4-((5-(1H-pyrazol-1-yl)pyridine-2-yl)oxy)-2-((difluoromethoxy)methyl)pyrrolidin-1-yl)benzamido)-3-(4-(ethylsulfonyl)phenyl)propionic Acid]	23.5
CCS(=O)(=O)c1ccc([C@H](COC(N)=O)NC(=O)c2ccc(N3C[C@@H](Oc4ccc(-n5nccn5)cn4)C[C@H]3COC(F)F)nc2)cc1 [Example 173, (R)-2-(6-((2S,4S)-4-((5-(2H-1,2,3-triazol-2-yl)pyridine-2-yl)oxy)-2-((difluoromethoxy)methyl)pyrrolidin-1-yl)nicotinylamino)-2-(4-(ethylsulfonyl)phenyl)ethyl carbamate]	3.8
CCS(=O)(=O)c1ccc([C@H](COCC(=O)O)NC(=O)c2ccc(N3C[C@@H](Oc4ccc(-n5cccn5)cn4)C[C@H]3COC(F)F)nc2)cc1 [Example 175, 2-((R)-2-(6-((2S,4S)-4-((5-(1H-pyrazol-1-yl)pyridine-2-yl)oxy)-2-((difluoromethoxy)methyl)pyrrolidin-1-yl)nicotinylamino)-2-(4-(ethylsulfonyl)phenyl)ethoxy)acetic Acid]	39.2
CCS(=O)(=O)c1ccc([C@H](COC(N)=O)NC(=O)c2ccc(N3C[C@@H](Oc4ccc(OC(F)(F)F)cn4)C[C@H]3CF)nc2)cc1 [Example 176, (R)-2-(4-(Ethylsulfonyl)phenyl)-2-(6-((2S,4S)-2-(fluoromethyl)-4-((5-(trifluoromethoxy)pyridin-2-yl)oxy)pyrrolidin-1-yl)nicotinamido)ethyl carbamate]	7.3
CCS(=O)(=O)c1ccc([C@H](COC(N)=O)NC(=O)c2cnc(N3CCCC3c3cccc(F)c3)nc2)cc1 (stereo partly drawn) [Example 177, (2R)-2-(4-(Ethylsulfonyl)phenyl)-2-(2-(2-(3-fluorophenyl)pyrrolidin-1-yl)pyrimidine-5-carboxamido)ethyl carbamate]	27.4
CCS(=O)(=O)c1ccc([C@H](CC(=O)O)NC(=O)c2cnc(N3CCCC3c3cccc(F)c3)nc2)cc1 (stereo partly drawn) [Example 178, (3S)-3-(4-(Ethylsulfonyl)phenyl)-3-(2-(2-(3-fluorophenyl)pyrrolidin-1-yl)pyrimidine-5-carboxamido)propionic Acid]	46.2
CCS(=O)(=O)c1ccc([C@H](COC(N)=O)NC(=O)c2cnc(N3CC(F)(F)CC3c3cccc(F)c3)nc2)cc1 (stereo partly drawn) [Example 179, (2R)-2-(2-(4,4-difluoro-2-(3-fluorophenyl)pyrrolidin-1-yl)pyrimidine-5-carboxamido)-2-(4-(ethylsulfonyl)phenyl)ethyl carbamate]	9.4
NC(=O)OCC(C(=O)Nc1ccc(C(O)(C(F)(F)F)C(F)(F)F)cc1)c1ccc(S(=O)(=O)CC2CC2)cc1 (centres unmarked) [Example 182, 2-(4-((cyclopropylmethyl)sulfonyl)phenyl)-3-((4-(1,1,1,3,3,3-hexafluoro hydroxypropan-2-yl)phenyl)amino)-3-oxopropyl carbamate]	55.8
CCS(=O)(=O)c1ccc([C@H](COC(N)=O)NC(=O)c2ccc(N3C[C@@H](Oc4ccc(Cl)cn4)C[C@H]3COC(F)F)nc2)cc1 [Example 183, (R)-2-(6-((2S,4S)-4-((5-chloropyridin-2-yl)oxy)-2-((difluoromethoxy)methyl)pyrrolidin-1-yl)nicotinamido)-2-(4-(ethylsulfonyl)phenyl)ethyl carbamate]	10
N—((S)-2-cyano-1-(4-(ethylsulfonyl)phenyl)ethyl)-4-((2S,4S)-2-((difluoromethoxy)methyl)-4-(4-(4-fluoro-1H-pyrazol-1-yl)phenoxy)pyrrolidin-1-yl) benzamide [Example 161]	10.4
N—((S)-2-cyano-1-(4-(ethylsulfonyl)phenyl)ethyl)-4-((2S,5R)-5-(2,2-difluorobenzo[1,3]dioxol yl)-2-((difluoromethoxy)methyl)piperidin-1-yl)benzamide [Example 112-2]	13
